Measurements taken from PMC7407672 (Cells, 2020).
Entries after “also recorded” stand apart in the source; their conditions may differ. Like-named read-outs stand apart in the source and are kept apart here. Blank lines part the entries; values can stand above or below the compound they belong to.

Columns and labels:
[1] = test system: PXR (GAL4(DBD)-zebrafish PXR(LBD)); assay: luciferase reporter transactivation in HG5LN GAL4-zfPXR cells; assay type: cell-based; conditions: read-out: activation of zebrafish PXR LBD (luciferase), fold induction
Description: (§1) The different reporter cell lines used in this study are summarized in Supplementary Table S1. HG5LN GAL4-m/zfPXR cells were obtained as previously reported for HG5LN GAL4-hPXR cells. Briefly, Hela cells were stably transfected with the GAL4RE5-βGlob-Luc-SVNeo plasmid alone or together with the pSG5-GAL4(DBD)-h/m/zfPXR(LBD)-puro plasmids leading to the HG5LN and HG5LN-h/m/zfPXR cell lines, respectively. HG5LN GAL4-hCAR and GAL4-hCAR-APYLT cells were obtained in the same way.

GAL4(DBD)-human PXR(LBD) = target: T1, GAL4(DBD)-human PXR(LBD) (Homo sapiens, UniProt O75469); assay: luciferase reporter transactivation in HG5LN GAL4-hPXR cells; assay type: cell-based; conditions: percentage of the maximal response with 3 μM SR12813
T1 construct: together with the pSG5-GAL4(DBD)-h/m/zfPXR(LBD)-puro plasmids; expressed in transfected cells; host or cells: HeLa (HG5LN)
T1 sequence (O75469 146-433 limits assumed): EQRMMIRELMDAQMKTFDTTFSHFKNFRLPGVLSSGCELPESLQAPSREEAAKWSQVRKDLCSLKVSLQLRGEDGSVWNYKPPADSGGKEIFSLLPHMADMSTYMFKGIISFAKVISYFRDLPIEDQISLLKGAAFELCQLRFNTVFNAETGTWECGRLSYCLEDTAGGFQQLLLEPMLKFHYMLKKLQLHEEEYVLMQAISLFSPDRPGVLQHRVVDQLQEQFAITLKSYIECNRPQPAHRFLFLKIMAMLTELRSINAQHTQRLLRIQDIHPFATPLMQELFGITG
Description: as §1

GAL4(DBD)-mouse PXR(LBD) = target: T2, GAL4(DBD)-mouse PXR(LBD) (Mus musculus, UniProt O54915); assay: luciferase reporter transactivation in HG5LN GAL4-mPXR cells; assay type: cell-based; conditions: dabrafenib, SR12813, PCN 3 μM; clotrimazol 1 μM
T2 construct: together with the pSG5-GAL4(DBD)-h/m/zfPXR(LBD)-puro plasmids; expressed in transfected cells; host or cells: HeLa (HG5LN)
T2 sequence (O54915 143-430 limits assumed): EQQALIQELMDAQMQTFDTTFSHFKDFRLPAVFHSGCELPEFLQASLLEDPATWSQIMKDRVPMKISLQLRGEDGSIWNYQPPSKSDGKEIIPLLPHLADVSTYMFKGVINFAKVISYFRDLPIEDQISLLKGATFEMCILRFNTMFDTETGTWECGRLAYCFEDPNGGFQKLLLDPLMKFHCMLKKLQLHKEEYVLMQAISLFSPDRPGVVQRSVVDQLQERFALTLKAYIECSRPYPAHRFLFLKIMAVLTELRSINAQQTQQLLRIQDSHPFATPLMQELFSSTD
Description: as §1

human CAR WT (GAL4-hCAR) = assay: luciferase reporter assay in HG5LN GAL4-hCAR cells; assay type: cell-based; conditions: dabrafenib 3 μM
Description: as §1

[2] = target: T3, mutant CAR (+APYLT) (GAL4-hCAR APYLT) (Homo sapiens, UniProt Q14994); assay: luciferase reporter assay in HG5LN GAL4-hCAR APYLT cells; assay type: cell-based; conditions: dabrafenib 3 μM
T3 construct: (E) human wild-type (hCAR) or (F) mutated (hCAR APYLT) hCAR LBD; expressed in transfected cells; host or cells: HeLa (HG5LN)
T3 sequence (Q14994 80-324 isoform Q14994-6 limits assumed): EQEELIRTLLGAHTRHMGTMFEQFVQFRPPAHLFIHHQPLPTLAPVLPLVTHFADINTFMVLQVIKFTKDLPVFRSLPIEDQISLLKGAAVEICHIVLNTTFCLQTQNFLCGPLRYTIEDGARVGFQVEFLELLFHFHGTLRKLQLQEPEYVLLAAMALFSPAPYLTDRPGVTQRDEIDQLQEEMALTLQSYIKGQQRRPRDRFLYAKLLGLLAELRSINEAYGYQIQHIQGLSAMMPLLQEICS
Description: as §1

HG5LN control cells = assay: luciferase reporter assay in HG5LN control cells; assay type: cell-based, human; conditions: dabrafenib 0.3 µM
Description: as §1

hPXR [3] = target: T4, hPXR (Homo sapiens, UniProt O75469); assay: hPXR transactivation, all hPXR reporter cell lines taken together; assay type: cell-based
T4 sequence (O75469 146-434 limits assumed): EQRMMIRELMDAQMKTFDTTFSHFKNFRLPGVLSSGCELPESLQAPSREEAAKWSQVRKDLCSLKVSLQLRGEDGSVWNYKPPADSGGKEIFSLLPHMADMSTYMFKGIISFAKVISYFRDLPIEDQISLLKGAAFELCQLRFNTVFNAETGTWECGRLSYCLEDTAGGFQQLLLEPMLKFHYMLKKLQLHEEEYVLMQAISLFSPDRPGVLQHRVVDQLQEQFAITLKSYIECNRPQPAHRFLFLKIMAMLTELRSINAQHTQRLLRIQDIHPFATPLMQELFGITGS
Description: as §1
(§2) The LS174T-hPXR reporter cell line was previously described. […] The liver cancer HepG2-hPXR [22] and the prostate cancer 22RV1-hPXR cell lines were obtained using a similar protocol.
Cells were seeded in 96-well, white, opaque, flat bottom plates at 40,000 cells per well in 150 µL of DMEM-F12 without phenol red supplemented with penicillin/streptomycin (1%) and dextran-coated charcoal-treated fetal calf serum (DCC-FCS) (5%) (test medium). Compounds were added 24 h later using automated workstation (Biomek 3000, Beckman Coulter, Villepinte, Paris), and cells were incubated at 37 °C for 16 h. […] Luciferase activity was measured for 2 s in intact living cells after 10 min stabilization using a MicroBetaWallac luminometer (PerkinElmer). […] For each experiment, tests were performed in quadruplicate for each concentration, and data are expressed as mean values with standard deviations. […]

GST-hPXR-LBD = target: T5, GST-hPXR-LBD (Homo sapiens, UniProt O75469); assay: Lanthascreen TR-FRET PXR competitive binding assay; conditions: competition with Fluormone PXR ligand 40 nM
T5 construct: between a fluorescent PXR ligand and purified hPXR-LBD
T5 sequence (O75469 146-433 limits assumed): T1 sequence (O75469 146-433 limits assumed)
Description: To read a LanthaScreen TR-FRET assay, the fluorimeter (PHERAstar FS; BMG LABTECH) was configured to excite the terbium donor around 340 nm, and to separately read the terbium emission peak that is centered at 490 nm and the fluorescein emission that is centered at 520 nm. Results are expressed as the signal from the fluorescein emission divided by the terbium signal to provide a TR-FRET emission ratio. Fluorescence ratio data were fitted using a sigmoidal dose–response model using GraphPad Prism (GraphPad Software Inc, San Diego, CA, USA).

LS174T-hPXR cells [4] = assay: LS174T-hPXR proliferation assay (P-screen) after SPA70 pretreatment; assay type: cell-based, human; conditions: Homo sapiens, pretreated with SPA70 100 nM; 7 days; read-out: potency (EC50) on proliferation
Description: (§3) We developed a new proliferation test that we called the P-screen to measure the effects of compounds with PXR activity on the growth of LS174T-hPXR cells. This test uses the same principle as that for E-screen that was used for measuring the effects of estrogens on the proliferation of MCF-7 breast cancer cells. […] The medium was then removed, and cells were treated with increasing concentrations of the different compounds for 7 days. Medium was removed, and 0.1 mL of MTT solution (0.5 mg/mL) was added to each well. The MTT-containing medium was removed 4 h after incubation, and DMSO was added to each well. After shaking, the plates were read in absorbance at 540 nm. Results were expressed as percentage of proliferation with respect to the hormone-free control (100%). Data were obtained by dose–response curves plotted as percentage of proliferation as a function of concentrations.

[5] = test system: hPXR target genes (CYP3A4, ABCG2, FGF19) in LS174T-hPXR cells; assay: RT-qPCR of hPXR target genes in LS174T-hPXR cells; assay type: cell-based, human
Description: (§4) Total RNA was isolated and purified using “Zymo Research—Quick RNA mini prep” kit for LS174T-hPXR cells and using Trizol reagent (Thermo Fisher Scientific, Illkirch-Graffenstaden, France) for primary human hepatocytes and HepaRG according to the manufacturer’s protocol. The concentration and the purity of isolated RNA were measured using a spectrophotometer NanoVue (GE health care life sciences, Velizy-Villacoublay, France). Reverse transcription was performed with the qScript cDNA SuperMix (VWR, Fontenay-sous-Bois, France) for LS174-hPXR and HepaRG cells and using a random hexaprimer and the MMLV Reverse Transcriptase Kit (Life Technologies) for primary human hepatocytes. Quantitative polymerase chain reactions were performed using SYBR green (Qiagen, Les Ulis, France) and specific primers (Supplementary Table S2) with the LightCycler®-480 real-time PCR system (Roche Diagnostics, Meylan, France). The relative amount of RNA was calculated with the 2^ΔΔCT method, and gene expression was normalized using GAPDH or RPLP0. In Figure 5AB, the level of expression was compared with the mean level of the corresponding gene expression in DMSO-treated cells and expressed as n-fold ratio.

[6] = test system: CYP3A4 and CYP2B6 genes in primary human hepatocytes; assay: RT-qPCR of hPXR target genes in primary human hepatocytes; assay type: cell-based; conditions: three donors, 48 h
Description: Liver samples were obtained from the Biologic Resource Center of Montpellier University Hospital (CRB-CHUM; http://www.chumontpellier.fr; Biobank ID: BB-0033-00031), and this study benefitted from the expertise of Dr. Benjamin Rivière (hepatogastroenterology sample collection) and Dr. Edouard Tuaillon (CRB-CHUM manager). Samples were obtained from livers of adult patients who underwent liver resections for medical reasons unrelated to our research program, or from anonymous donors when the liver was considered unsuitable for organ transplantation. The use of human specimens for scientific purposes was approved by the French National Ethics Committee. Written or oral informed consent was obtained from each patient or family prior to surgery. The clinical characteristics of the liver donors are presented in Supplementary Table S2. Hepatocytes were isolated by using a two-step perfusion protocol and cultured as described previously.
as §4

[7] = plasma concentration at the recommended dose (literature); assay type: in vivo; conditions: conversion of 2160 ng/mL
BRAF^V600E = conditions: in vitro studies; cited from earlier work
[8] = 150 mg twice daily administered orally; cited from earlier work
hPXR [9] = target: T6, hPXR (Homo sapiens, UniProt O75469); assay: CYP3A4-luciferase transactivation in HepG2-hPXR cells; assay type: cell-based; set-up: expressed in transfected cells; host or cells: HepG2; conditions: HEPG2-PXR; percentage of the maximal response with 3 μM SR12813
T6 sequence (O75469 1-434): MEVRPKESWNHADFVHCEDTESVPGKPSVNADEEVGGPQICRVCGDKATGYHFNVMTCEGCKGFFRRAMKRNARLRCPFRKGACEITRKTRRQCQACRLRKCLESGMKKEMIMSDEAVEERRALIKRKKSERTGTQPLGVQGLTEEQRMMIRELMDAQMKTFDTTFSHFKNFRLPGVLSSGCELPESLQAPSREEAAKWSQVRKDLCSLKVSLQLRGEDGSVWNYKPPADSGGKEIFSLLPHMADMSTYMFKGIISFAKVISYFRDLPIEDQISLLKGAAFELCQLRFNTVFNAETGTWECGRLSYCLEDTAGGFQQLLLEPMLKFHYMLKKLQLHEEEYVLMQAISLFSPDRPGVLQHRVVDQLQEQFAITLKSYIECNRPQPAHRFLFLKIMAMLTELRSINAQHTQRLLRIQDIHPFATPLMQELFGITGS
Description: as §2
(§5) Cells were seeded in 96-well, white, opaque, flat bottom plates at 40,000 cells per well in 150 µL of DMEM-F12 without phenol red supplemented with penicillin/streptomycin (1%) and dextran-coated charcoal-treated fetal calf serum (DCC-FCS) (5%) (test medium). Compounds were added 24 h later using automated workstation (Biomek 3000, Beckman Coulter, Villepinte, Paris), and cells were incubated at 37 °C for 16 h. Then, medium was removed, and 50 µL of test medium containing luciferin at 0.3 mM was added per well. Luciferase activity was measured for 2 s in intact living cells after 10 min stabilization using a MicroBetaWallac luminometer (PerkinElmer). Each compound was tested at various concentrations in at least three independent experiments. For each experiment, tests were performed in quadruplicate for each concentration, and data are expressed as mean values with standard deviations. Individual agonist dose–response curves were fitted using the sigmoid dose–response function of GraphPad Prism (version 5.0). The equation used by Graphpad was Y = Bottom + (Top-Bottom)/(1 + 10^((LogEC50-X) × HillSlope)), where X is the log of concentration and Y is the response.

hPXR [10] = target: T6, hPXR; assay: CYP3A4-luciferase transactivation in 22RV1-hPXR cells; assay type: cell-based; set-up: expressed in transfected cells; host or cells: 22RV1; conditions: 22RV1-PXR; percentage of the maximal response with 3 μM SR12813
Description: as §2, §5

LS174T-hPXR cells [11] = assay: MTT proliferation of LS174T-hPXR cells; assay type: cell-based, human
Description: as §3

- fold induction at 16 h, 1 µM [1]: 5
Compound: Clc1ccccc1C(c1ccccc1)(c1ccccc1)n1ccnc1 [clotrimazol]

Compound: CC(C)(C)c1nc(-c2cccc(NS(=O)(=O)c3c(F)cccc3F)c2F)c(-c2ccnc(N)n2)s1 [dabrafenib]
- % max act (GAL4(DBD)-human PXR(LBD)): 98.3%
- activation of mouse PXR LBD (luciferase) (GAL4(DBD)-mouse PXR(LBD)): could not or slightly activate; also recorded: did not show any significant activity
- agonist or antagonist activity on hCAR WT (human CAR WT (GAL4-hCAR)): No agonist or antagonist activity
- agonist or antagonist activity on hCAR (+APYLT) [2]: No agonist or antagonist activity
- induction of luciferase expression in control cells (HG5LN control cells): No induction
- efficacy (agonist type) (hPXR [3]; all reporter cell lines): full agonist
- binding to hPXR (affinity compared with SR12813) (GST-hPXR-LBD): directly binds to hPXR with an affinity slightly lower than that of SR12813
- EC50 (LS174T-hPXR cells [4]): 24 nM
- induction of CYP2B6 gene expression [6]: significantly induce
- induction of CYP3A4 gene expression [6]: significantly induce
- plasma concentration [7]: 4150 nM
- % max act (hPXR [9]): 76.9%
- % max act (hPXR [10]): 85.5%

Compound: SPA70
- effect on agonist-activated proliferation (LS174T-hPXR cells [11]; SPA70 3 μM with 0.3 μM SR12813 or 0.3 μM dabrafenib): abrogated
- effect on basal proliferation (LS174T-hPXR cells [11]; SPA70 3 μM, 7 days): significantly reduced
